Reference: ChEMBL document CHEMBL3046842, “Antimicrobial and insect antifeedant activities of some Trogers bases” (2012)
Calls of active or inactive are those of the source.

Tests used:
Staphylococcus aureus = assay: Antibacterial activity against Staphylococcus aureus at 250 ug/ml after 24 to 45 hrs by disc diffusion method; assay type: functional; conditions: read-out: IZ
Pseudomonas = assay: Antibacterial activity against Pseudomonas at 250 ug/ml after 24 to 45 hrs by disc diffusion method; assay type: functional; conditions: read-out: IZ
Enterococcus faecalis = assay: Antibacterial activity against Enterococcus faecalis at 250 ug/ml after 24 to 45 hrs by disc diffusion method; assay type: functional; conditions: for zone of inhibition at 250 µg/mL: read-out: IZ
Aspergillus niger = assay: Antifungal activity against Aspergillus niger at 50 ug/ml after 72 hrs by disc diffusion method; assay type: functional, organism-based
Proteus vulgaris = assay: Antibacterial activity against Proteus vulgaris at 250 ug/ml after 24 to 45 hrs by disc diffusion method; assay type: functional; conditions: read-out: IZ
Achaea janata [1] = assay: Antifeedant activity against fourth instar larvae of Achaea janata fed on compound treated castor leaves at 200 ppm after 24 hrs by leaf disc method; assay type: functional, organism-based
Penicillium = assay: Antifungal activity against Penicillium at 50 ug/ml after 72 hrs by disc diffusion method; assay type: functional, organism-based
Escherichia coli = assay: Antibacterial activity against Escherichia coli at 250 ug/ml after 24 to 45 hrs by disc diffusion method; assay type: functional; conditions: read-out: IZ
Candida albicans = assay: Antifungal activity against Candida albicans at 250 ug/ml after 72 hrs by disc diffusion method; assay type: functional; conditions: for zone of inhibition at 250 µg/mL: read-out: IZ
Klebsiella pneumoniae = assay: Antibacterial activity against Klebsiella pneumoniae at 250 ug/ml after 24 to 45 hrs by disc diffusion method; assay type: functional; conditions: read-out: IZ
Achaea janata [2] = assay: Antifeedant activity against fourth instar larvae of Achaea janata fed on compound treated castor leaves at 150 ppm after 24 hrs by leaf disc method; assay type: functional, organism-based

| Compound | zone of inhibition at 250 µg/mL (Staphylococcus aureus) [mm] | zone of inhibition at 250 µg/mL (Pseudomonas) [mm] | zone of inhibition at 250 µg/mL (Enterococcus faecalis) [mm] | Activity (Aspergillus niger) | zone of inhibition at 250 µg/mL (Proteus vulgaris) [mm] | Activity (Achaea janata [1]) | Activity (Penicillium) | zone of inhibition at 250 µg/mL (Escherichia coli) [mm] | zone of inhibition at 250 µg/mL (Candida albicans) [mm] | zone of inhibition at 250 µg/mL (Klebsiella pneumoniae) [mm] | Activity (Enterococcus faecalis) | Activity (Candida albicans) | Activity (Achaea janata [2]) |
| --- | --- | --- | --- | --- | --- | --- | --- | --- | --- | --- | --- | --- | --- |
| Brc1cccc2c1CN1CN2Cc2c(Br)cccc21 | 8 | 13 | 13 | inactive | 8 | Active | inactive | 8 | 8 | 13 |  |  |  |
| Cc1ccc2c(c1Cl)CN1CN2Cc2c1ccc(C)c2Cl | 13 | 13 | 8 | inactive | 13 | Active | inactive | 13 | 13 | 13 |  |  |  |
| COc1cc2c(cc1Cl)N1Cc3cc(OC)c(Cl)cc3N(C2)C1 | 20 | 20 | 8 | inactive | 20 | Active | Active | 20 | 20 | 20 |  |  |  |
| O=C(c1ccccc1)c1cc(Cl)cc2c1N1Cc3cc(Cl)cc(C(=O)c4ccccc4)c3N(C2)C1 | 13 | 13 |  | Active | 13 | Active | inactive | 13 | 20 | 13 | inactive |  |  |
| Clc1cccc2c1CN1CN2Cc2c(Cl)cccc21 | 13 | 8 | 13 | inactive | 8 | Active | inactive | 8 | 8 | 8 |  |  |  |
| Cc1cc2c(cc1Cl)N1Cc3cc(C)c(Cl)cc3N(C2)C1 | 8 | 13 | 13 | inactive | 8 | Active | inactive | 8 | 13 | 13 |  |  |  |
| Cc1ccc2c(c1I)CN1CN2Cc2c1ccc(C)c2I | 8 | 13 | 13 | inactive | 8 | Active | inactive | 8 | 13 | 13 |  |  |  |
| Brc1ccc2c(c1)CN1CN2Cc2cc(Br)ccc21 | 20 | 13 | 20 | Active | 13 | Active | Active | 20 | 20 | 20 |  |  |  |
| Clc1ccc2c(c1)N1Cc3ccc(Cl)cc3N(C2)C1 | 13 | 13 | 13 | inactive | 13 | Active | inactive | 13 | 8 | 13 |  |  |  |
| Fc1ccc2c(c1)N1Cc3ccc(F)cc3N(C2)C1 | 13 | 8 |  | inactive | 13 | Active | inactive | 13 | 8 | 13 | inactive |  |  |
| Cc1ccc2c(c1Br)CN1CN2Cc2c1ccc(C)c2Br | 13 | 13 | 8 | inactive | 13 | Active | inactive | 13 | 8 | 13 |  |  |  |
| COc1ccc2c(c1Cl)CN1CN2Cc2c1ccc(OC)c2Cl | 20 | 20 | 13 | inactive | 20 | Active | Active | 20 | 20 | 20 |  |  |  |
| Fc1ccc2c(c1)CN1CN2Cc2cc(F)ccc21 | 13 | 8 |  | inactive | 13 | Active | inactive | 13 | 8 | 13 | inactive |  |  |
| Cc1cc2c(cc1I)N1Cc3cc(C)c(I)cc3N(C2)C1 | 13 | 8 |  | inactive | 8 | Active | inactive | 8 | 13 | 8 | inactive |  |  |
| Cc1cc(F)c2c(c1)CN1CN2Cc2cc(C)cc(F)c21 | 13 | 8 |  | inactive | 13 | Active | inactive | 13 | 8 | 13 | inactive |  |  |
| Cc1cc(I)c2c(c1)CN1CN2Cc2cc(C)cc(I)c21 | 13 | 8 | 8 | inactive | 13 | Active | inactive | 13 | 13 | 13 |  |  |  |
| Cc1cc(Cl)c2c(c1)CN1CN2Cc2cc(C)cc(Cl)c21 | 13 | 8 |  | inactive | 13 | Active | inactive | 13 |  | 13 | inactive | inactive |  |
| Brc1cccc2c1N1Cc3cccc(Br)c3N(C2)C1 | 8 | 8 |  | inactive | 8 | Active | inactive | 13 |  | 8 | inactive | inactive |  |
| Fc1cc(F)c2c(c1)CN1CN2Cc2cc(F)cc(F)c21 | 8 | 8 |  | inactive | 8 | Active | inactive | 13 |  | 8 | inactive | inactive | Active |
| COc1ccc2c(c1Br)CN1CN2Cc2c1ccc(OC)c2Br | 20 | 20 | 13 | Active | 20 | Active | Active | 20 | 13 | 20 |  |  |  |
| Clc1cccc2c1N1Cc3cccc(Cl)c3N(C2)C1 | 13 | 8 | 13 | inactive | 8 | Active | inactive | 8 | 8 | 8 |  |  |  |
| Clc1ccc2c(c1)CN1CN2Cc2cc(Cl)ccc21 | 13 | 13 |  | inactive | 13 | Active | inactive | 13 |  | 13 | inactive | inactive |  |
| Cc1cc(Br)cc2c1N1Cc3cc(Br)cc(C)c3N(C2)C1 | 8 | 13 | 13 | inactive | 8 | Active | inactive | 8 | 8 | 13 |  |  |  |
